Measured values published in US7118895B2, “Process for producing aglycon by using diglycosidase and flavor-improved food containing the aglycon and converting agent to be used in the process” (Amano Enzyme Inc., priority 2000, dated 2006).

What was measured:
Crude diglycosidase = assay: Examination of substrate concentration in the conversion into isoflavone aglycons by diglycosidase using soybean materials; format: biochemical, Penicillium multicolor IAM7153;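 also: percent of the isoflavone family total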
How it was run: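 Reaction at 55° C, shaken, pH 4.0 (20 mM acetate), using crude diglycosidase from a 1.88 AU/mL enzyme solution on soy flour, soymilk, defatted soybean or soy protein concentrate at 2, 5, 10, 20 or 30% (w/v). Isoflavone aglycons quantified by HPLC of ethanol extracts at 0, 1, 3, 6 h.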

[1] = system: β-Glucosidase derived from A. niger; assay: Reactivity toward various isoflavone glycosides (HPLC); format: biochemical, Aspergillus niger; set-up: glucoside / aglycon: unit not given here; conditions: 55 °C, pH 4.0
Procedure: Diglycosidase was diluted with an acetate buffer of pH 4.0 to prepare a 0.75 AU/mL enzyme solution. As references, a similar operation was conducted using β-glucosidase (manufactured by Fluka) derived from Aspergillus niger, β-glucosidase (manufactured by Sigma) derived from almond, β-xylosidase derived from pectinase G (manufactured by Amano Enzyme Inc.). Each of purified products of isoflavone glycosides (glycitin, acetylglycitin, malonylglycitin, daidzin, acetyldaidzin, malonyldaidzin, genistin, acetylgenistin, malonylgenistin, all manufactured by Nacalai Tesque, Inc.) was dissolved in methanol to prepare each 2 mM substrate solution. The reaction was carried out by mixing 10 μL of a substrate solution, 200 μL of 20 mM acetate buffer (pH 4.0), and 40 μL of each purified enzyme solution at a total liquid volume of 250 μL. The reaction was carried out at 55° C. and isolation of an aglycon isoflavone from an isoflavone glycoside in the reaction mixture was detected by HLPC at 0, 1, 3, and 6 hours of the reaction.
To the reaction mixture was added 700 μL of ethanol, followed by stirring and ultrasonication. After centrifugation at 15,000 rpm and 4° C. for 10 minutes, the supernatant was filtered through a filter and then the filtrate was applied to HPLC.
The isoflavone glycoside and aglycon isoflavone contained in the filtrate was separated and detected by a high performance liquid chromatography (HPLC, Shimadzu CLASS LC-10 system) using TOSOH TSK gel ODS-80TM column (manufactured by Tosoh Corporation). […] The absorbance at 260 nm was detected by a UV detector (Shimadzu, SPD-10AV). Using purified products (manufactured by Nacalai Tesque, Inc.) of the above isoflavone glycosides and aglycon isoflavones, the isoflavone glycoside and aglycon isoflavone were quantitatively determined according to a calibration curve method. By the way, unless otherwise stated, the measuring conditions of HPLC herein mean those described in the example.

Decomposition efficiency: ratio of each glycoside/aglycon within its isoflavone family (Crude diglycosidase; concentrated soybean protein, substrate concentration 2%, heat treatment of enzyme no, reaction time 0 h): 35.8%
Decomposition efficiency: ratio of each glycoside/aglycon within its isoflavone family (Crude diglycosidase; concentrated soybean protein, substrate concentration 2%, heat treatment of enzyme no, reaction time 1 h): 14.3%
Decomposition efficiency: ratio of each glycoside/aglycon within its isoflavone family (Crude diglycosidase; concentrated soybean protein, substrate concentration 2%, heat treatment of enzyme no, reaction time 3 h): 5.3%
Decomposition efficiency: ratio of each glycoside/aglycon within its isoflavone family (Crude diglycosidase; concentrated soybean protein, substrate concentration 2%, heat treatment of enzyme no, reaction time 6 h): 0.0%
Decomposition efficiency: ratio of each glycoside/aglycon within its isoflavone family (Crude diglycosidase; concentrated soybean protein, substrate concentration 2%, heat treatment of enzyme yes, reaction time 6 h): 35.0%
Decomposition efficiency: ratio of each glycoside/aglycon within its isoflavone family (Crude diglycosidase; concentrated soybean protein, substrate concentration 5%, heat treatment of enzyme no, reaction time 0 h): 35.6%
Decomposition efficiency: ratio of each glycoside/aglycon within its isoflavone family (Crude diglycosidase; concentrated soybean protein, substrate concentration 5%, heat treatment of enzyme no, reaction time 1 h): 27.1%
Decomposition efficiency: ratio of each glycoside/aglycon within its isoflavone family (Crude diglycosidase; concentrated soybean protein, substrate concentration 5%, heat treatment of enzyme no, reaction time 3 h): 17.8%
Decomposition efficiency: ratio of each glycoside/aglycon within its isoflavone family (Crude diglycosidase; concentrated soybean protein, substrate concentration 5%, heat treatment of enzyme no, reaction time 6 h): 12.3%
Decomposition efficiency: ratio of each glycoside/aglycon within its isoflavone family (Crude diglycosidase; concentrated soybean protein, substrate concentration 5%, heat treatment of enzyme yes, reaction time 6 h): 34.4%
Decomposition efficiency: ratio of each glycoside/aglycon within its isoflavone family (Crude diglycosidase; concentrated soybean protein, substrate concentration 10%, heat treatment of enzyme no, reaction time 0 h): 35.7%
Decomposition efficiency: ratio of each glycoside/aglycon within its isoflavone family (Crude diglycosidase; concentrated soybean protein, substrate concentration 10%, heat treatment of enzyme no, reaction time 1 h): 31.2%
Decomposition efficiency: ratio of each glycoside/aglycon within its isoflavone family (Crude diglycosidase; concentrated soybean protein, substrate concentration 10%, heat treatment of enzyme no, reaction time 3 h): 26.2%
Decomposition efficiency: ratio of each glycoside/aglycon within its isoflavone family (Crude diglycosidase; concentrated soybean protein, substrate concentration 10%, heat treatment of enzyme no, reaction time 6 h): 23.9%
Decomposition efficiency: ratio of each glycoside/aglycon within its isoflavone family (Crude diglycosidase; concentrated soybean protein, substrate concentration 10%, heat treatment of enzyme yes, reaction time 6 h): 35.2%
Decomposition efficiency: ratio of each glycoside/aglycon within its isoflavone family (Crude diglycosidase; concentrated soybean protein, substrate concentration 20%, heat treatment of enzyme no, reaction time 0 h): 35.9%
Decomposition efficiency: ratio of each glycoside/aglycon within its isoflavone family (Crude diglycosidase; concentrated soybean protein, substrate concentration 20%, heat treatment of enzyme no, reaction time 1 h): 35.4%
Decomposition efficiency: ratio of each glycoside/aglycon within its isoflavone family (Crude diglycosidase; concentrated soybean protein, substrate concentration 20%, heat treatment of enzyme no, reaction time 3 h): 33.6%
Decomposition efficiency: ratio of each glycoside/aglycon within its isoflavone family (Crude diglycosidase; concentrated soybean protein, substrate concentration 20%, heat treatment of enzyme no, reaction time 6 h): 30.5%
Decomposition efficiency: ratio of each glycoside/aglycon within its isoflavone family (Crude diglycosidase; concentrated soybean protein, substrate concentration 20%, heat treatment of enzyme yes, reaction time 6 h): 35.8%
Decomposition efficiency: ratio of each glycoside/aglycon within its isoflavone family (Crude diglycosidase; concentrated soybean protein, substrate concentration 30%, heat treatment of enzyme no, reaction time 0 h): 33.9%
Decomposition efficiency: ratio of each glycoside/aglycon within its isoflavone family (Crude diglycosidase; concentrated soybean protein, substrate concentration 30%, heat treatment of enzyme no, reaction time 1 h): 35.9%
Decomposition efficiency: ratio of each glycoside/aglycon within its isoflavone family (Crude diglycosidase; concentrated soybean protein, substrate concentration 30%, heat treatment of enzyme no, reaction time 3 h): 30.7%
Decomposition efficiency: ratio of each glycoside/aglycon within its isoflavone family (Crude diglycosidase; concentrated soybean protein, substrate concentration 30%, heat treatment of enzyme no, reaction time 6 h): 28.3%
Decomposition efficiency: ratio of each glycoside/aglycon within its isoflavone family (Crude diglycosidase; concentrated soybean protein, substrate concentration 30%, heat treatment of enzyme yes, reaction time 6 h): 33.4%
Decomposition efficiency: ratio of each glycoside/aglycon within its isoflavone family (Crude diglycosidase; defatted soybean, substrate concentration 2%, heat treatment of enzyme no, reaction time 0 h): not detected
Decomposition efficiency: ratio of each glycoside/aglycon within its isoflavone family (Crude diglycosidase; defatted soybean, substrate concentration 2%, heat treatment of enzyme no, reaction time 1 h): not detected
Decomposition efficiency: ratio of each glycoside/aglycon within its isoflavone family (Crude diglycosidase; defatted soybean, substrate concentration 2%, heat treatment of enzyme no, reaction time 3 h): not detected
Decomposition efficiency: ratio of each glycoside/aglycon within its isoflavone family (Crude diglycosidase; defatted soybean, substrate concentration 2%, heat treatment of enzyme no, reaction time 6 h): not detected
Decomposition efficiency: ratio of each glycoside/aglycon within its isoflavone family (Crude diglycosidase; defatted soybean, substrate concentration 2%, heat treatment of enzyme yes, reaction time 6 h): not detected
Decomposition efficiency: ratio of each glycoside/aglycon within its isoflavone family (Crude diglycosidase; defatted soybean, substrate concentration 5%, heat treatment of enzyme no, reaction time 0 h): not detected
Decomposition efficiency: ratio of each glycoside/aglycon within its isoflavone family (Crude diglycosidase; defatted soybean, substrate concentration 5%, heat treatment of enzyme no, reaction time 1 h): not detected
Decomposition efficiency: ratio of each glycoside/aglycon within its isoflavone family (Crude diglycosidase; defatted soybean, substrate concentration 5%, heat treatment of enzyme no, reaction time 3 h): not detected
Decomposition efficiency: ratio of each glycoside/aglycon within its isoflavone family (Crude diglycosidase; defatted soybean, substrate concentration 5%, heat treatment of enzyme no, reaction time 6 h): not detected
Decomposition efficiency: ratio of each glycoside/aglycon within its isoflavone family (Crude diglycosidase; defatted soybean, substrate concentration 5%, heat treatment of enzyme yes, reaction time 6 h): not detected
Decomposition efficiency: ratio of each glycoside/aglycon within its isoflavone family (Crude diglycosidase; defatted soybean, substrate concentration 10%, heat treatment of enzyme no, reaction time 0 h): not detected
Decomposition efficiency: ratio of each glycoside/aglycon within its isoflavone family (Crude diglycosidase; defatted soybean, substrate concentration 10%, heat treatment of enzyme no, reaction time 1 h): not detected
Decomposition efficiency: ratio of each glycoside/aglycon within its isoflavone family (Crude diglycosidase; defatted soybean, substrate concentration 10%, heat treatment of enzyme no, reaction time 3 h): not detected
Decomposition efficiency: ratio of each glycoside/aglycon within its isoflavone family (Crude diglycosidase; defatted soybean, substrate concentration 10%, heat treatment of enzyme no, reaction time 6 h): not detected
Decomposition efficiency: ratio of each glycoside/aglycon within its isoflavone family (Crude diglycosidase; defatted soybean, substrate concentration 10%, heat treatment of enzyme yes, reaction time 6 h): not detected
Decomposition efficiency: ratio of each glycoside/aglycon within its isoflavone family (Crude diglycosidase; roasted soy flour, substrate concentration 2%, heat treatment of enzyme no, reaction time 0 h): 33.6%
Decomposition efficiency: ratio of each glycoside/aglycon within its isoflavone family (Crude diglycosidase; roasted soy flour, substrate concentration 2%, heat treatment of enzyme no, reaction time 1 h): not detected
Decomposition efficiency: ratio of each glycoside/aglycon within its isoflavone family (Crude diglycosidase; roasted soy flour, substrate concentration 2%, heat treatment of enzyme no, reaction time 3 h): not detected
Decomposition efficiency: ratio of each glycoside/aglycon within its isoflavone family (Crude diglycosidase; roasted soy flour, substrate concentration 2%, heat treatment of enzyme no, reaction time 6 h): not detected
Decomposition efficiency: ratio of each glycoside/aglycon within its isoflavone family (Crude diglycosidase; roasted soy flour, substrate concentration 2%, heat treatment of enzyme yes, reaction time 6 h): 34.4%
Decomposition efficiency: ratio of each glycoside/aglycon within its isoflavone family (Crude diglycosidase; roasted soy flour, substrate concentration 5%, heat treatment of enzyme no, reaction time 0 h): 33.8%
Decomposition efficiency: ratio of each glycoside/aglycon within its isoflavone family (Crude diglycosidase; roasted soy flour, substrate concentration 5%, heat treatment of enzyme no, reaction time 1 h): 11.8%
Decomposition efficiency: ratio of each glycoside/aglycon within its isoflavone family (Crude diglycosidase; roasted soy flour, substrate concentration 5%, heat treatment of enzyme no, reaction time 3 h): 7.2%
Decomposition efficiency: ratio of each glycoside/aglycon within its isoflavone family (Crude diglycosidase; roasted soy flour, substrate concentration 5%, heat treatment of enzyme no, reaction time 6 h): not detected
Decomposition efficiency: ratio of each glycoside/aglycon within its isoflavone family (Crude diglycosidase; roasted soy flour, substrate concentration 5%, heat treatment of enzyme yes, reaction time 6 h): 33.8%
Decomposition efficiency: ratio of each glycoside/aglycon within its isoflavone family (Crude diglycosidase; roasted soy flour, substrate concentration 10%, heat treatment of enzyme no, reaction time 0 h): 24.2%
Decomposition efficiency: ratio of each glycoside/aglycon within its isoflavone family (Crude diglycosidase; roasted soy flour, substrate concentration 10%, heat treatment of enzyme no, reaction time 1 h): 16.7%
Decomposition efficiency: ratio of each glycoside/aglycon within its isoflavone family (Crude diglycosidase; roasted soy flour, substrate concentration 10%, heat treatment of enzyme no, reaction time 3 h): 9.7%
Decomposition efficiency: ratio of each glycoside/aglycon within its isoflavone family (Crude diglycosidase; roasted soy flour, substrate concentration 10%, heat treatment of enzyme no, reaction time 6 h): not detected
Decomposition efficiency: ratio of each glycoside/aglycon within its isoflavone family (Crude diglycosidase; roasted soy flour, substrate concentration 10%, heat treatment of enzyme yes, reaction time 6 h): 35.1%
Decomposition efficiency: ratio of each glycoside/aglycon within its isoflavone family (Crude diglycosidase; roasted soy flour, substrate concentration 20%, heat treatment of enzyme no, reaction time 0 h): 31.8%
Decomposition efficiency: ratio of each glycoside/aglycon within its isoflavone family (Crude diglycosidase; roasted soy flour, substrate concentration 20%, heat treatment of enzyme no, reaction time 1 h): 22.9%
Decomposition efficiency: ratio of each glycoside/aglycon within its isoflavone family (Crude diglycosidase; roasted soy flour, substrate concentration 20%, heat treatment of enzyme no, reaction time 3 h): 13.8%
Decomposition efficiency: ratio of each glycoside/aglycon within its isoflavone family (Crude diglycosidase; roasted soy flour, substrate concentration 20%, heat treatment of enzyme no, reaction time 6 h): 10.0%
Decomposition efficiency: ratio of each glycoside/aglycon within its isoflavone family (Crude diglycosidase; roasted soy flour, substrate concentration 20%, heat treatment of enzyme yes, reaction time 6 h): 35.0%
Decomposition efficiency: ratio of each glycoside/aglycon within its isoflavone family (Crude diglycosidase; roasted soy flour, substrate concentration 30%, heat treatment of enzyme no, reaction time 0 h): 35.3%
Decomposition efficiency: ratio of each glycoside/aglycon within its isoflavone family (Crude diglycosidase; roasted soy flour, substrate concentration 30%, heat treatment of enzyme no, reaction time 1 h): 28.4%
Decomposition efficiency: ratio of each glycoside/aglycon within its isoflavone family (Crude diglycosidase; roasted soy flour, substrate concentration 30%, heat treatment of enzyme no, reaction time 3 h): 24.4%
Decomposition efficiency: ratio of each glycoside/aglycon within its isoflavone family (Crude diglycosidase; roasted soy flour, substrate concentration 30%, heat treatment of enzyme no, reaction time 6 h): 13.7%
Decomposition efficiency: ratio of each glycoside/aglycon within its isoflavone family (Crude diglycosidase; roasted soy flour, substrate concentration 30%, heat treatment of enzyme yes, reaction time 6 h): 34.4%
aglycon ([1]; Reaction time 0 h): 0
glucoside ([1]; Reaction time 0 h): 100
aglycon ([1]; Reaction time 1 h): 0
glucoside ([1]; Reaction time 1 h): 100
aglycon ([1]; Reaction time 3 h): 1
glucoside ([1]; Reaction time 3 h): 99
aglycon ([1]; Reaction time 6 h): 1.9
glucoside ([1]; Reaction time 6 h): 98.1
Structure (SMILES): COc1cc2c(=O)c(-c3ccc(O)cc3)coc2cc1O[C@@H]1O[C@H](COC(C)=O)[C@@H](O)[C@H](O)[C@H]1O [acetylglycitin, 6″-O-acetylglycitin]
